Laboratory results from PMC8603191, “Fragment-based design of selective GPCR ligands guided by free energy simulations” (Chemical communications (Cambridge, England), 2021).
“And” between values parts separate entries of the source, which are not always exact repeats. Equal values may be shown once. “Also recorded” adds a separate entry of the source.

Assays:
hA2AAR = molecular target: hA2AAR; parameters: method as in ChEMBL database; conditions: ligands with < 20 HA; ref ChEMBL database; cited from earlier work
hA1AR [1] = molecular target: hA1AR; parameters: method as in ChEMBL database; conditions: ligands with < 20 HA; ref ChEMBL database; cited from earlier work
hA1AR [2] = experiment: Ki values of known ligands downloaded from the ChEMBL database; format: binding, human; conditions: from ChEMBL Ki values hA1AR and hA2AAR
Excerpt: Table S5. Highest affinity human A1AR ligands (with < 20 HA) in the ChEMBL database compared to compound 22.a […]
a Known A1AR and A2AAR ligands with determined Ki values were downloaded from the ChEMBL database.
Compounds with motifs found in pan-assay interference compounds16 were excluded using OpenEye Toolkits 2020.2.0 OpenEye Scientific Software, Santa Fe, NM. http://www.eyesopen.com.

human A2AAR [3] = molecular target: T1, human A2AAR (Homo sapiens, UniProt P29274); experiment: cAMP functional assay; format: cell-based; conditions: HEK293 cells, intracellular cAMP, n=3
T1 construct: expressed in transfected cells; host or cells: HEK293 (membrane preparations)
T1 sequence (P29274 whole entry): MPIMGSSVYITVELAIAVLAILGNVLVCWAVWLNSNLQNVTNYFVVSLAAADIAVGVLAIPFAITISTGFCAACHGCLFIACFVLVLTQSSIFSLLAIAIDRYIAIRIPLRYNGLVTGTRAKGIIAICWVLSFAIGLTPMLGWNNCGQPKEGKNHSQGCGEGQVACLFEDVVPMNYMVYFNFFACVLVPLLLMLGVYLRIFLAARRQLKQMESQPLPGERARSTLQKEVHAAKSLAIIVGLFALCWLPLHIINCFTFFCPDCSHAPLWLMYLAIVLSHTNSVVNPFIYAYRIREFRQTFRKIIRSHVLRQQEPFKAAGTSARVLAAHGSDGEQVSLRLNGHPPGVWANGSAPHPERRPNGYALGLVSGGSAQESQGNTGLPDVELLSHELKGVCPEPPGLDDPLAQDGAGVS
Method: (§1) Functional assays measuring intracellular concentrations of cAMP were performed at the human A1AR and A2AAR to determine the efficacy of compounds 22 and 26. […]
cAMP assay. HEK293 cells were grown in DMEM supplemented with 10% fetal bovine serum, 100 Units/ml penicillin, 100 µg/ml streptomycin, and 2 µmol/ml glutamine. After 24 hours, cells were treated with assay buffer containing rolipram (10 µM), PSB603 (1 […]
The reaction was terminated upon removal of the supernatant, and addition of 100 µl Tween-20 (0.3%). Intracellular cAMP levels […]
(§2) were measured with an ALPHAScreen cAMP assay kit following the instructions from the manufacturer (PerkinElmer).

human A1AR [4] = molecular target: T2, human A1AR (Homo sapiens, UniProt P30542); experiment: cAMP functional assay; format: cell-based; conditions: HEK293 cells, intracellular cAMP, n=3
T2 construct: expressed in transfected cells; host or cells: HEK293 (membrane preparations)
T2 sequence (P30542 1-326): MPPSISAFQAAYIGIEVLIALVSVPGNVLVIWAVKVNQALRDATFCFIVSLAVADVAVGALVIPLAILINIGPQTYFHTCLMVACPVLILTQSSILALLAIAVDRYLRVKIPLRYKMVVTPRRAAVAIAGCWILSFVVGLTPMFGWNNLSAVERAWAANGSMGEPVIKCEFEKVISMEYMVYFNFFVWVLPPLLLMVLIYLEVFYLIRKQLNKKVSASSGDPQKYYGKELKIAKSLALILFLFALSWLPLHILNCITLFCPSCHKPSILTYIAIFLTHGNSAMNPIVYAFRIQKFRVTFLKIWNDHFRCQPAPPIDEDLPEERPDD
Method: as §1
cAMP assay. HEK293 cells were grown in DMEM supplemented with 10% fetal bovine serum, 100 Units/ml penicillin, 100 µg/ml streptomycin, and 2 µmol/ml glutamine. After 24 hours, cells were treated with assay buffer containing rolipram (10 µM), PSB603 (1 µM) and adenosine deaminase (3 units/ml) for 30 min followed by the addition of antagonists for 20 min and subsequent addition of agonists and incubated for another 20 min. For the A1AR assay, after incubation with agonist for 20 min, forskolin (10 µM) was added and incubated for an additional 15 min. The reaction was terminated upon removal of the supernatant, and addition of 100 µl Tween-20 (0.3%). Intracellular cAMP levels […]
as §2

human A1AR [5] = molecular target: T2, human A1AR; experiment: Radioligand binding assay, displacement of [3H]DPCPX; conditions: for Free energy of binding (ΔG) A1AR: calculated from experimental binding affinities; for ΔΔG Experimental A1AR: based on Table S3
Method: (§3) Radioligand binding assays. HEK293 cells expressing the human A1- or A2AARs were cultured in DMEM supplemented with 10% fetal bovine serum, 100 Units/ml penicillin, 100 µg/ml streptomycin, and 2 µmol/ml glutamine. Cells were detached from plates by scraping into cold PBS and centrifuged at 250 g for 5 min. The pellets were resuspended in ice-cold Tris HCl buffer (50 mM, pH 7.4) and then homogenized. After homogenization and suspension, cells were centrifuged at 1000 g for 10 min, and the pellet was discarded.
(§4) The suspension was then re-centrifuged at 20,000 g for 60 min at 4 °C. The pellets were resuspended in buffer containing 3 Units/ml adenosine deaminase and incubated at 37°C for 30 min. The aliquots of membrane preparations were stored at −80°C until the binding experiments. For displacement binding assays, membrane preparations (20 µg proteins/tube) were incubated at 25°C for 60 min with a final concentration of [3H]DPCPX (0.5 nM) and [3H]ZM241385 (1.0 nM) for A1- and A2AARs, respectively, in a mixture containing 50 µL of increasing concentrations of a test ligand in a total assay volume of 200 µL of 50 mM Tris HCl, pH 7.4, containing 10 mM MgCl2. Nonspecific binding was determined using 100 µM of XAC. The reaction was terminated by filtration with GF/B filters using a Brandel 24-channel harvester. Filters were placed in scintillation vials containing 5 ml of Hydrofluor scintillation buffer and counted using a PerkinElmer Tricarb 2810TR liquid scintillation counter. […]
(§5) Table S1. Binding affinities of compounds 1-10 based on displacement of [3H]DPCPX and [3H]ZM241385 at the A1AR and A2AAR, respectively.
(§6) Compound Substituent A1AR A2AAR index […]
(§7) a Ki values are expressed as means ± SEM from (2-4) independent experiments. b Free energy of binding (ΔG) calculated from experimental binding affinities (kcal/mol) / Number of heavy atoms (HA). The ligand efficiency (LE) = −ΔG/HA. c Values from Matricon et al.8
(§8) Table S3. Binding affinities of compounds 11-26 based on displacement of [3H]DPCPX and […]
(§9) a K values are expressed as means ± SEM from (2-4) independent experiments.
(§10) Free energy of binding (ΔG) calculated from experimental binding affinities (kcal/mol) / Number of heavy

human A1AR [6] = experiment: as above; conditions: A1AR versus A2AAR; for A1AR selectivity index: from Ki values
Method: as §3, §4, §5, §6, §7, §8, §9, §10

human A2AAR [7] = molecular target: T1, human A2AAR; experiment: Radioligand binding assay, displacement of [3H]ZM241385; conditions: for Free energy of binding (ΔG) A2AAR: calculated from experimental binding affinities; for ΔΔG Experimental A2AAR: based on Table S3
Method: as §3, §4, §5, §6, §7, §8, §9, §10

[8] = displacement of [3H]ZM241385, means ± SEM from 2-4 independent experiments
[9] = displacement of [3H]DPCPX, means ± SEM from 2-4 independent experiments

Structure (SMILES) | Ki (hA2AAR) | Ki (hA1AR [1]) | A1AR selectivity (hA1AR [2]) | Free energy of binding (ΔG) A1AR (human A1AR [5]) | A1AR selectivity index (human A1AR [6]) | Free energy of binding (ΔG) A2AAR (human A2AAR [7]) | further results
Cc1nc(N)c2nc(-n3nccn3)n(C)c2n1 [CHEMBL194290] | 70.4 nM | 10.4 nM | 6.8 |  |  |  | 
Cn1c(-n2nccn2)nc2c(N)ncnc21 [CHEMBL194728] | 46.3 nM | 0.4 nM | 115.7 |  |  |  | 
Nc1nc2ccccc2n2nc(-c3ccco3)nc12 [CHEMBL261345] | 11.2 nM | 5.6 nM | 2.0 |  |  |  | 
Oc1nc2ccccc2n2nc(-c3cccs3)nc12 [CHEMBL328437] |  | 2 nM |  |  |  |  | 
Cn1ncc2nc(N)n3nc(-c4ccco4)nc3c21 [CHEMBL1935752] | 3.6 nM | 10 nM | 0.4 |  |  |  | 
CC1(C(=O)Nc2nc3cc(Br)ccc3s2)CCCC1 [Compound 22] |  |  |  | -11.0 kcal/mol | 38.4 | -8.8 kcal/mol | efficacy in cAMP assay at A2AAR (human A2AAR [3]): antagonists; also recorded: Antagonism; efficacy in cAMP assay at A1AR (human A1AR [4]): antagonists; also recorded: Antagonism; improvement of A1AR affinity (human A1AR [5]; compared to compound 1): > 1000 fold; Ki (human A1AR [5]; radioligand binding, Fig. 1, Table S5): 10 nM; ΔΔG Experimental A1AR (human A1AR [5]; reference compound 9): –2.4 ± 0.1 kcal/mol; selectivity for the A1AR (human A1AR [6]; Fig. 1): 38 fold; Ki (human A2AAR [7]; [8]): 384 ± 82 nM; ΔΔG Experimental A2AAR (human A2AAR [7]; reference compound 9): –0.8 ± 0.1 kcal/mol
CC1(C(=O)Nc2nc3cc(C#N)ccc3s2)CCCC1 [Compound 25] |  |  |  | -9.9 kcal/mol | 27.8 | -7.9 kcal/mol | Ki (human A1AR [5]; [9]): 64 ± 6 nM; ΔΔG Experimental A1AR (human A1AR [5]; reference compound 9): –1.3 ± 0.1 kcal/mol; Ki (human A2AAR [7]; [8]): 1780 ± 740 nM; ΔΔG Experimental A2AAR (human A2AAR [7]; reference compound 9): 0.1 ± 0.3 kcal/mol
COc1cccc2sc(NC(=O)c3ccccc3)nc12 [Compound 26] |  |  |  | -8.1 kcal/mol | 0.1 | -9.6 kcal/mol | efficacy in cAMP assay at A2AAR (human A2AAR [3]): antagonists; also recorded: Antagonism; efficacy in cAMP assay at A1AR (human A1AR [4]): antagonists; also recorded: Antagonism; Ki (human A1AR [5]; [9]): 1330 nM and 1300 nM; ΔΔG Experimental A1AR (human A1AR [5]; reference compound 10): 0.4 ± 0.3 kcal/mol; A2AAR selectivity (human A2AAR [7]; A2AAR versus A1AR): 13 fold; Ki (human A2AAR [7]; radioligand binding, Table S5): 106 nM; ΔΔG Experimental A2AAR (human A2AAR [7]; reference compound 10): –0.8 ± 0.1 kcal/mol
